From ChEMBL document CHEMBL1201862, “PubChem BioAssay data set” (2004) come the findings set out here.

Each structure is given as a SMILES string.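 Step 1: Grow cells in 96-well plates. Step 2: Expose to compound for 48 hours at 5 concentrations. Step 3: Interpolate endpoints linearly; if unreached, use highest concentration. GI50 is the concentration that inhibits growth by half.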 Active and inactive are the calls of the source. Rule as the data show it: active = GI50 up to about 1.1 µM and inactive = higher. Where a SMILES comes first, the peptide text is derived from it. The star is where a group is joined. Cbz = O=C(OCc1ccccc1)*

Test systems include BT-549; TK-10; SNB-75; SK-MEL-5; MOLT-4; SF-539; NCI/ADR-RES; COLO 205; EKVX; MDA-MB-231; HOP-92; OVCAR-5; SK-OV-3; MDA-MB-435; RXF 393; K562; UACC-257; NCI-H226; SF-268; T47D.
Holding throughout (test): NCI tumour cell line growth inhibition, 48 h

Consider `COc1ccc(/C=C\c2cc(OC)c(OC)c(OC)c2)cc1OC(=O)NCCN(C)C`, for which the GI50 was 0.83 µM (active) in the assay with BT-549; 0.297 µM (active) in the assay on TK-10; 0.000215 µM (active) with SNB-75; < 0.0001 µM (active) with SK-MEL-5; 0.000145 µM (active) in the assay with MOLT-4; 0.000133 µM (active) in the assay with SF-539. Moreover, the GI50 with NCI/ADR-RES is < 0.0001 µM (active); in the assay on COLO 205 it was 0.215 µM (active); in the assay with EKVX, < 0.0247 µM (active); in the assay on MDA-MB-231, 0.01 µM (active); in the assay on HOP-92, < 0.0001 µM (active); in the assay on OVCAR-5 it was 0.00764 µM (active). In addition, the GI50 was 0.00339 µM (active) in the assay on SK-OV-3; < 0.0001 µM (active) in the assay on MDA-MB-435; < 0.0001 µM (active) with RXF 393; < 0.0001 µM (active) in the assay with K562; 0.00839 µM (active) in the assay with UACC-257; 0.0064 µM (active) with NCI-H226.
In the case of `CCOC(=O)CNC(=O)C(C)NC(=O)C(NC(=O)OCc1ccccc1)C(C)C` (stereo not drawn) (Cbz-Val-Ala-Gly-OEt; configuration not given here), the GI50 in the assay on BT-549 was 58.7 µM (inactive); in the assay with TK-10, > 100 µM (inactive); in the assay with SNB-75 it was > 100 µM (inactive); in the assay with SK-MEL-5, > 100 µM (inactive); in the assay with MOLT-4 it was 32 µM (inactive); in the assay with SF-539 it was > 100 µM (inactive). Also, the GI50 in the assay on NCI/ADR-RES, with COLO 205, in the assay with SF-268, in the assay with EKVX, in the assay with HOP-92 and in the assay on OVCAR-5 was > 100 µM (inactive) each time. Also, the GI50 is > 100 µM (inactive) in the assay with SK-OV-3; > 100 µM (inactive) with MDA-MB-435; > 100 µM (inactive) with RXF 393; 48.1 µM (inactive) with K562; > 100 µM (inactive) with UACC-257; > 10 µM (inactive) in the assay on NCI-H226.
For the compound `CCOC(=O)N/N=C(\CC)OCC`, the GI50 in the assay with BT-549, in the assay on TK-10, in the assay with SNB-75, with T47D, with SK-MEL-5 and in the assay on MOLT-4 was > 100 µM (inactive) throughout. In addition, the GI50 in the assay on SF-539, with NCI/ADR-RES, in the assay with COLO 205, with SF-268, in the assay on EKVX and in the assay on MDA-MB-231 was > 100 µM (inactive) in each case. The GI50 in the assay on OVCAR-5, in the assay with SK-OV-3, in the assay with RXF 393, in the assay with K562 and with UACC-257 was > 100 µM (inactive) throughout.
On to `Nc1nc2ccc(OCC(O)CN3CCCCC3)cc2[n+]([O-])n1` (stereo unspecified), for which the GI50 with BT-549 was > 100 µM (inactive); in the assay on TK-10, > 100 µM (inactive); in the assay on SNB-75, 70.3 µM (inactive); in the assay on SK-MEL-5, > 100 µM (inactive); with MOLT-4 it was > 100 µM (inactive); with SF-539, > 100 µM (inactive). For the same compound, the GI50 in the assay with NCI/ADR-RES, with COLO 205, in the assay with MDA-MB-231, in the assay on HOP-92, in the assay with OVCAR-5 and in the assay on MDA-MB-435 was > 100 µM (inactive) in each case. Also, the GI50 with RXF 393, in the assay with K562, in the assay on UACC-257 and with NCI-H226 was > 100 µM (inactive) each time.
With `Cc1nc(N)c(N2CCN([N+](=O)[O-])CC2)c(O)n1`, the GI50 with BT-549, in the assay with TK-10, with SNB-75, in the assay on T47D, with MOLT-4 and in the assay with SF-539 was > 100 µM (inactive) throughout. Further, the GI50 in the assay on NCI/ADR-RES, with COLO 205, in the assay on SF-268, in the assay with EKVX, in the assay with MDA-MB-231 and in the assay on OVCAR-5 was > 100 µM (inactive) throughout. In addition, the GI50 in the assay on MDA-MB-435, in the assay with K562, in the assay on UACC-257 and with NCI-H226 was > 100 µM (inactive) throughout.
For `CC1=NCC[N+]1(CCc1ccccc1)Cc1ccccc1` (stereo unspecified), the GI50 with BT-549 is 33.6 µM (inactive); in the assay on TK-10, 48.1 µM (inactive); with SNB-75 it was > 100 µM (inactive); with T47D it was > 100 µM (inactive); with SK-MEL-5 it was 14.7 µM (inactive); in the assay on NCI/ADR-RES it was > 100 µM (inactive). The GI50 is 5.93 µM (inactive) in the assay on COLO 205; 27.6 µM (inactive) in the assay on SF-268; > 100 µM (inactive) in the assay with EKVX; 62.4 µM (inactive) with MDA-MB-231; 4.78 µM (inactive) in the assay with HOP-92; 47.4 µM (inactive) with OVCAR-5. The GI50 was > 100 µM (inactive) in the assay with SK-OV-3; > 100 µM (inactive) in the assay on RXF 393; 2.94 µM (inactive) with K562; 19.3 µM (inactive) in the assay with UACC-257; 65 µM (inactive) with NCI-H226.
Turning to `CC(C)CC(=O)CC(O)C(Cl)(Cl)Cl` (stereo unspecified), the GI50 in the assay with BT-549, in the assay on TK-10, in the assay with SNB-75, in the assay on T47D, with SK-MEL-5 and in the assay on MOLT-4 was > 100 µM (inactive) throughout. Moreover, the GI50 in the assay on NCI/ADR-RES was > 100 µM (inactive); with COLO 205, > 100 µM (inactive); in the assay with EKVX, > 100 µM (inactive); in the assay with MDA-MB-231, > 100 µM (inactive); in the assay with OVCAR-5 it was > 100 µM (inactive); in the assay on SK-OV-3 it was 87.1 µM (inactive). For the same compound, the GI50 with MDA-MB-435, in the assay with RXF 393, in the assay on K562, with UACC-257 and in the assay with NCI-H226 was > 100 µM (inactive) each time.
For the compound `Nc1ncnc2c1nnn2C1CCC(CP(=O)(O)O)C1` (stereo unspecified), the GI50 with TK-10, with SNB-75, with T47D, with SK-MEL-5, in the assay with MOLT-4 and in the assay on SF-539 was > 100 µM (inactive) throughout. The GI50 in the assay on NCI/ADR-RES, in the assay on COLO 205, with SF-268, in the assay with EKVX, in the assay with MDA-MB-231 and in the assay with HOP-92 was > 100 µM (inactive) each time. In addition, the GI50 in the assay with OVCAR-5, in the assay with SK-OV-3, with MDA-MB-435, in the assay on RXF 393, in the assay with K562 and in the assay with UACC-257 was > 100 µM (inactive) in each case. Besides, the GI50 in the assay on NCI-H226 is > 100 µM (inactive).
As to `CC(CCC#N)(CCC#N)C(=O)CC(O)(C(F)(F)F)C(F)(F)F`, the GI50 with TK-10 was 7.71 µM (inactive); in the assay on SNB-75 it was 14.9 µM (inactive); with T47D, 4.22 µM (inactive); in the assay with SK-MEL-5 it was 13.3 µM (inactive); with MOLT-4 it was 0.547 µM (active); in the assay with SF-539, 3.44 µM (inactive). The GI50 in the assay on NCI/ADR-RES is 5.94 µM (inactive); in the assay on COLO 205, 2.28 µM (inactive); in the assay with SF-268 it was 7.89 µM (inactive); in the assay on EKVX it was 20.7 µM (inactive); with MDA-MB-231, 4.06 µM (inactive); in the assay on HOP-92, 4.86 µM (inactive). Further, the GI50 is 12.3 µM (inactive) in the assay on OVCAR-5; 47 µM (inactive) in the assay with SK-OV-3; 5.6 µM (inactive) in the assay on MDA-MB-435; 2.07 µM (inactive) in the assay with RXF 393; 1.36 µM (inactive) in the assay on K562; 6.41 µM (inactive) with UACC-257. Also, the GI50 in the assay with NCI-H226 is 19.8 µM (inactive).
`CCN(CC)CCC(=O)N1C/C(=C/c2ccccc2)C(=O)/C(=C\c2ccccc2)C1`: the GI50 was 0.363 µM (active) with BT-549; 6.58 µM (inactive) in the assay on TK-10; 4.08 µM (inactive) in the assay on SNB-75; 1.19 µM (inactive) in the assay on T47D; 1.76 µM (inactive) with SK-MEL-5; 0.28 µM (active) in the assay with MOLT-4. The GI50 in the assay with SF-539 was 3.83 µM (inactive); in the assay on COLO 205, 2.31 µM (inactive); in the assay with SF-268, 2.04 µM (inactive); in the assay on EKVX, 3.42 µM (inactive); in the assay on MDA-MB-231, 0.845 µM (active); in the assay on HOP-92 it was 4.52 µM (inactive). Besides, the GI50 in the assay with OVCAR-5 was 3.45 µM (inactive); in the assay with SK-OV-3, 8.57 µM (inactive); with MDA-MB-435 it was 1.7 µM (inactive); in the assay on RXF 393, 1.51 µM (inactive); in the assay on K562, 0.141 µM (active); in the assay on UACC-257 it was 2.1 µM (inactive). Further, the GI50 in the assay on NCI-H226 is 5.32 µM (inactive).
Turning to `CSc1nncc(-c2cc3c(c(SC)n2)CCC3)n1`, the GI50 in the assay with BT-549 is > 100 µM (inactive); in the assay with TK-10, > 100 µM (inactive); in the assay with SNB-75, 22.1 µM (inactive); in the assay on SK-MEL-5 it was > 100 µM (inactive); in the assay with NCI/ADR-RES it was 69.5 µM (inactive); with COLO 205, > 100 µM (inactive). Moreover, the GI50 in the assay on SF-268 is 76 µM (inactive); in the assay with EKVX, > 100 µM (inactive); in the assay with MDA-MB-231, 18.9 µM (inactive); in the assay on OVCAR-5, > 100 µM (inactive); with SK-OV-3 it was > 100 µM (inactive); in the assay with MDA-MB-435, > 100 µM (inactive). The GI50 with RXF 393, with UACC-257 and in the assay on NCI-H226 was > 100 µM (inactive) in each case.
